Measurements published in ChEMBL document CHEMBL6087414, “Discovery of 4-(4-(3-(1-(2-(piperidin-1-yl)ethyl)-1H-benzo[d]imidazole-2-yl)isoxazol-5-yl)phenyl)morpholine as a novel c-Myc inhibitor against lung cancer in vitro and in vivo” (Eur J Med Chem, 2025).
Calls of active or inactive are those of the source. No cut-off for these calls is given here.

Tests used:
A549 [1] = experiment: Induction of apoptosis in human A549 cells assessed as viable cells at 10 uM incubated for 48 hrs by Annexin V-FITC/PI staining based flow cytometry (reference value: 87.8 %); type: functional; conditions: read-out: Activity
A549 [2] = experiment: Induction of apoptosis in human A549 cells assessed as early apoptotic cells at 10 uM incubated for 48 hrs by Annexin V-FITC/PI staining based flow cytometry (reference value: 5.02 %); type: functional
A549 [3] = experiment: Induction of apoptosis in human A549 cells assessed as decrease in Bcl-2 level at 2.5 to 10 uM incubated for 48 hrs by Western blot analysis; type: functional, cell-based; conditions: dose 2.5-10 µM
[4] = target: Myc proto-oncogene protein (Homo sapiens) (UniProt P01106); experiment: Inhibition of c-Myc in human A549 cells by Western blot analysis; type: cell-based; conditions: dose <= 10.0 µM
[5] = Cytotoxicity against human BEAS-2B cells assessed as cell viability upto 20 uM incubated for 48 hrs by CCK8 assay relative to control; type: toxicity, cell-based; conditions: read-out: Activity
NCI-H1299 = experiment: Cytotoxicity against human NCI-H1299 cells assessed as inhibition of cell viability incubated for 48 hrs by CCK8 assay; type: functional, cell-based; conditions: NCI-H1299, 48 h
[6] = target: Myc proto-oncogene protein (Homo sapiens) (UniProt P01106); experiment: Inhibition of c-Myc in human A549 cells at 10 uM incubated for 24 hrs in presence of MG132 by Western blot analysis; type: cell-based
A549 [7] = experiment: Induction of apoptosis in human A549 cells assessed as necrotic cells at 2.5 uM incubated for 48 hrs by Annexin V-FITC/PI staining based flow cytometry (reference value: 1.41 %); type: functional
A549 [8] = experiment: Induction of apoptosis in human A549 cells incubated for 48 hrs by Annexin V-FITC/PI staining based flow cytometry; type: functional, cell-based; conditions: dose 5-15 µM
A549 [9] = experiment: Induction of apoptosis in human A549 cells assessed as necrotic cells at 5 uM incubated for 48 hrs by Annexin V-FITC/PI staining based flow cytometry (reference value: 1.41 %); type: functional
A549 [10] = experiment: Induction of apoptosis in human A549 cells assessed as late apoptotic cells at 2.5 uM incubated for 48 hrs by Annexin V-FITC/PI staining based flow cytometry (reference value: 5.79 %); type: functional
A549 [11] = experiment: Effect on c-Myc mRNA expression in human A549 cells at 10 uM by Q-PCR analysis; type: functional, cell-based
A549 [12] = experiment: Induction of apoptosis in human A549 cells assessed as early apoptotic cells at 2.5 uM incubated for 48 hrs by Annexin V-FITC/PI staining based flow cytometry (reference value: 5.02 %); type: functional
[13] = target: Myc proto-oncogene protein (Homo sapiens) (UniProt P01106); experiment: Inhibition of c-Myc in human A549 cells assessed as decrease in half life at 10 uM pretreated for 12 hrs followed by CHX treatment for 1 to 2 hrs by Western blot analysis; type: cell-based; conditions: time 13-14 hrs
A549 [14] = experiment: Induction of apoptosis in human A549 cells assessed as necrotic cells at 10 uM incubated for 48 hrs by Annexin V-FITC/PI staining based flow cytometry (reference value: 1.41 %); type: functional
A549 [15] = experiment: Induction of apoptosis in human A549 cells assessed as early apoptotic cells at 5 uM incubated for 48 hrs by Annexin V-FITC/PI staining based flow cytometry (reference value: 5.02 %); type: functional
A549 [16] = experiment: Induction of apoptosis in human A549 cells assessed as activation of caspase-3 cleavage at 2.5 to 10 uM incubated for 48 hrs by Western blot analysis; type: functional, cell-based; conditions: dose 2.5-10 µM
A549 [17] = experiment: Induction of apoptosis in human A549 cells assessed as activation of caspase-9 cleavage at 2.5 to 10 uM incubated for 48 hrs by Western blot analysis; type: functional, cell-based; conditions: dose 2.5-10 µM
A549 [18] = experiment: Induction of apoptosis in human A549 cells assessed as increase in BAD level at 2.5 to 10 uM incubated for 48 hrs by Western blot analysis; type: functional, cell-based; conditions: dose 2.5-10 µM
A549 [19] = experiment: Induction of apoptosis in human A549 cells assessed as viable cells at 5 uM incubated for 48 hrs by Annexin V-FITC/PI staining based flow cytometry (reference value: 87.8 %); type: functional; conditions: read-out: Activity
A549 [20] = experiment: Induction of apoptosis in human A549 cells assessed as increase in BAX level at 2.5 to 10 uM incubated for 48 hrs by Western blot analysis; type: functional, cell-based; conditions: dose 2.5-10 µM
A549 [21] = experiment: Induction of apoptosis in human A549 cells at 15 uM incubated for 48 hrs by Annexin V-FITC/PI staining based flow cytometry relative to control; type: functional
A549 [22] = experiment: Induction of apoptosis in human A549 cells assessed as viable cells at 2.5 uM incubated for 48 hrs by Annexin V-FITC/PI staining based flow cytometry (reference value: 87.8 %); type: functional; conditions: read-out: Activity
A549 [23] = experiment: Induction of apoptosis in human A549 cells assessed as late apoptotic cells at 5 uM incubated for 48 hrs by Annexin V-FITC/PI staining based flow cytometry (reference value: 5.79 %); type: functional
A549 [24] = experiment: Induction of apoptosis in human A549 cells assessed as late apoptotic cells at 10 uM incubated for 48 hrs by Annexin V-FITC/PI staining based flow cytometry (reference value: 5.79 %); type: functional
A549 [25] = experiment: Induction of apoptosis in human A549 cells at 5 uM incubated for 48 hrs by Annexin V-FITC/PI staining based flow cytometry relative to control; type: functional
A549 [26] = experiment: Cytotoxicity against human A549 cells assessed as inhibition of cell viability incubated for 48 hrs by CCK8 assay; type: functional, cell-based; conditions: A549, 48 h
[27] = target: Myc proto-oncogene protein (Homo sapiens) (UniProt P01106); experiment: Inhibition of c-Myc in human NCI-H1299 cells by Western blot analysis; type: cell-based; conditions: dose <= 10.0 µM

Chain of Myc proto-oncogene protein (Homo sapiens) (P01106 whole entry): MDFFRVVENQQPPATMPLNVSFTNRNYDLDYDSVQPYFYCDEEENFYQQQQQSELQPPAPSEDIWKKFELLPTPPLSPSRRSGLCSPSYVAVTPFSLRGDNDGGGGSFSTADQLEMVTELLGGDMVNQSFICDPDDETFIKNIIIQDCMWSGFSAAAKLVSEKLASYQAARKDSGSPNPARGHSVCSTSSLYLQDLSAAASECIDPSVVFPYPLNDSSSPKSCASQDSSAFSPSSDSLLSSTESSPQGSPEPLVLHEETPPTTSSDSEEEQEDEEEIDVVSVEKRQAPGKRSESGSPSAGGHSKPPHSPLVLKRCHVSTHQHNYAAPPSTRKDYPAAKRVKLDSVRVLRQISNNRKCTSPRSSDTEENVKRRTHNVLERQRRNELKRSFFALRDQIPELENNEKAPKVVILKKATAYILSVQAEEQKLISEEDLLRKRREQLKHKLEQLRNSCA

With `c1ccc2c(c1)nc(-c1cc(-c3ccc(N4CCOCC4)cc3)on1)n2CCN1CCCC1` as the compound, how does the viability at 10 µM (A549 [1]) read?
Its viability at 10 µM is 43.2%.

What about the Activity (A549 [2]) of the same compound?
The Activity was 7.88%.

What about the Activity (A549 [3]) of the same compound?
Its Activity is “Active”.

What about the inhibition [4] of the same compound?
The inhibition was “Dose-dependent-effect”.

What about the viability at 48 h, 20 µM [5] of the same compound?
Its viability at 48 h, 20 µM is over 90%.

What about the IC50 (NCI-H1299) of the same compound?
The IC50 was 11.4 µM.

And the inhibition [6]?
Its inhibition is “inactive”.

And the Activity (A549 [7])?
The Activity was 5.52%.

What about the Activity (A549 [8]) of the same compound?
Its Activity is “Dose-dependent-effect”.

And the Activity (A549 [9])?
The Activity was 2.44%.

What about the Activity (A549 [10]) of the same compound?
Its Activity is 17.7%.

What about the Activity (A549 [11]) of the same compound?
The Activity was “inactive”.

And the Activity (A549 [12])?
Its Activity is 4.67%.

What about the inhibition [13] of the same compound?
Its inhibition is “Active”.

What about the Activity (A549 [14]) of the same compound?
The Activity was 3.66%.

What about the Activity (A549 [15]) of the same compound?
Its Activity is 11.7%.

And the Activity (A549 [16])?
Its Activity is “Active”.

What about the Activity (A549 [17]) of the same compound?
Its Activity is “Active”.

And the Activity (A549 [18])?
Its Activity is “Active”.

And the viability at 5 µM (A549 [19])?
Its viability at 5 µM is 66.3%.

And the Activity (A549 [20])?
The Activity was “Active”.

And the Activity (A549 [21])?
Its Activity is 53%.

And the viability at 2.5 µM (A549 [22])?
Its viability at 2.5 µM is 72.1%.

What about the Activity (A549 [23]) of the same compound?
Its Activity is 19.5%.

What about the Activity (A549 [24]) of the same compound?
Its Activity is 45.2%.

And the Activity (A549 [25])?
The Activity was 22.3%.

And the IC50 (A549 [26])?
The IC50 was 6.32 µM.

What about the inhibition [27] of the same compound?
Its inhibition is “Dose-dependent-effect”.
